US20140349970A1 (ABBVIE INC., priority 2009, published 2014)
Where two headings read alike, the source gives them in different places.

Target: T1, Syk catalytic domain (aa 356-635 with a C-terminal His-tag) (Homo sapiens, UniProt P43405)
T1 construct: His-tag (C); made in house
Experiment: In vitro Syk kinase activity measured by trFRET, Syk catalytic domain
Type: biochemical
Procedure: In Vitro Syk Kinase Activity Measured by Time-Resolved Fluorescence Resonance Energy Transfer (trFRET)
0.14 nM purified Syk catalytic domain (aa 356-635 with a C-terminal His-tag purified in-house by immobilized metal ion affinity chromatography) was mixed with 0.2 μM peptide substrate (biotin-TYR1, Sequence: Biotin-(Ahx)-GAEEEIYAAFFA-COOH) at varying inhibitor concentrations in reaction buffer: 50 mM MOPSO pH 6.5, 10 mM MgCl2, 2 mM MnCl2, 2.5 mM DTT, 0.01% BSA, 0.1 mM Na3VO4 and 0.001 mM ATP. After about 60 min incubation at rt, the reaction was quenched by addition of EDTA (final concentration: 100 mM) and developed by addition of revelation reagents (final approximate concentrations: 30 mM HEPES pH 7.0, 0.06% BSA, 0.006% Tween-20, 0.24 M KF, 80 ng/mL PT66K (europium labeled anti-phosphotyrosine antibody cat #61T66KLB Cisbio, Bedford, Mass.) and 0.6 μg/mL SAXL (Phycolink streptavidin-allophycocyanin acceptor, cat #PJ255, Prozyme, San Leandro, Calif.). The developed reaction was incubated in the dark either at about 4° C. for about 14 h or for about 60 min at rt, then read via a time-resolved fluorescence detector (Rubystar, BMG) using a 337 nm laser for excitation and monitoring emission wavelengths at 665 nm. Within the linear range of the assay, the observed signal at 665 nm was directly related to phosphorylated product and can be used to calculate the IC50 values.
MOPSO buffer contains: 50 mM MOPSO pH 6.5, 10 mM MgCl2, 2 mM MnCl2, 2.5 mM DTT, 0.01% BSA, and 0.1 mM Na3VO4 HEPES buffer contains: 50 mM HEPES pH 7.1, 2.5 mM DTT, 10 mM MgCl2, 2 mM MnCl2, 0.01% BSA, and 0.1 mM Na3VO4 MOPS buffer contains: 20 mM MOPS pH 7.2, 10 mM MgCl2, 5 mM EGTA, 5 mM Beta-phosphoglycerol, 1 mM Na3VO4, 0.01% Triton-X-100 and 1 mM DTT
Biotin-TYR1-peptide sequence: Biotin-(Ahx)-GAEEEIYAAFFA-COOH Biotin-TYR2-peptide sequence: Biotin-(Ahx)-AEEEYFFLFA-amide KinEASE 51 peptides were purchased from Cisbio (cat #62ST0PEB, Bedford, Mass.)
PT66K was purchased from Cisbio (cat #61T66KLB, Bedford, Mass.) EuSTK was purchased from Cisbio (cat #62ST0PEB, Bedford, Mass.) SAXL was purchased from Prozyme (cat #PJ25S, San Leandro, Calif.) Human T-Blasts IL-2 pSTAT5 Cellular Assay

[1] = Syk catalytic domain (aa 356-635), trFRET, 0.001 mM ATP

SMILES	IC50 [1]	IC50
Cn1ncc2cnc3[nH]c(-c4cccnc4)cc3c21 [N.2.2]	100 to 1000 nM	–
Cn1cc(-c2cc3c(ncc4cnn(C)c43)[nH]2)c2nccnc21 [N.1.117]	100 to 1000 nM	–
CNS(=O)(=O)c1ccc(-c2nc(C)n3c2cnc2[nH]ccc23)cc1 [AC.1.9]	–	< 100 nM
COc1ccc(-c2nc(C)n3c2cnc2[nH]ccc23)cc1Cl [AC.1.42]	–	100 to 1000 nM
CCc1c[nH]c2ncc3c(-c4ccc5nccnc5c4)nn(C)c3c12 [N.1.68]	1000 to 10000 nM	–
COc1ccc2c(c1)c(-c1cc3c(ncc4cnn(C)c43)[nH]1)cn2CCN1CCOCC1 [N.2.11]	< 100 nM	–
COc1ccc(-c2nc(CN(C)C)n3c2cnc2[nH]ccc23)cc1 [N.1.89]	1000 to 10000 nM	–
CS(=O)(=O)c1ccc(-c2ncn3c2cnc2[nH]ccc23)cc1 [N.1.90]	< 100 nM	–
Cn1cc(-c2cc3c(ncc4cnn(C)c43)[nH]2)c2cc(OCCN3CCOCC3)ccc21 [N.1.112]	< 100 nM	–
CC(C)(O)c1ccc(-c2ncn3c2cnc2[nH]ccc23)cc1F [AC.4.6]	–	< 100 nM
CC(C)(N)c1ccc(-c2nc(C3CCCCC3)n3c2cnc2[nH]ccc23)cc1 [P.3.1.1, 2-(4-(1-Cyclohexyl-6H-imidazo[1,5-a]pyrrolo[2,3-e]pyrazin-3-yl)phenyl)propan-2-amine]	–	100 to 1000 nM
COc1c(C)cc(-c2nc(C)n3c2cnc2[nH]ccc23)cc1C [AC.1.25]	–	< 100 nM
C=C(C)c1ccc(-c2nc(C3CC[C@H](NS(=O)(=O)C4CC4)C3)n3c2cnc2[nH]ccc23)cc1 (stereo partly drawn) [N.1.52]	100 to 1000 nM	–
CC(=O)N[C@@H]1C[C@H](c2nc(-c3ccc(C(C)(C)O)cc3)c3cnc4[nH]ccc4n23)N(S(=O)(=O)C2CC2)C1 [AC.5.2]	–	100 to 1000 nM
CCc1c[nH]c2ncc3c(-c4ccc(CO)cc4)nn(C)c3c12 [N.1.71]	100 to 1000 nM	–
CC(C)(O)c1ccc(-c2nc(-c3cccnc3CO)n3c2cnc2[nH]ccc23)cc1 [D.2.4]	100 to 1000 nM	–
COc1ccc2c(c1)c(-c1cc3c(ncc4cnc([C@@H]5CCN(C(C)=O)C5)n43)[nH]1)cn2C [J.2.1.1]	100 to 1000 nM	–
CC(C)(O)c1ccc(-c2nc(C3CC[C@H](NS(=O)(=O)C4CC4)C3)n3c2cnc2[nH]ccc23)cc1 (stereo partly drawn) [N.1.51]	< 100 nM	–
Cn1ncc2cnc3[nH]c(-c4cccc(C(=O)NCCN5CCOCC5)c4)cc3c21 [N.1.6]	< 100 nM	–
COc1ccc2c(c1)c(-c1cc3c(ncc4cnc(CCCO)n43)[nH]1)cn2C [M.1.7]	< 100 nM	–
Cn1ncc2cnc3[nH]c(-c4cccc(S(=O)(=O)NCCN5CCOCC5)c4)cc3c21 [N.1.41]	100 to 1000 nM	–
COc1ccc(-c2cc3c(ncc4cnn(C)c43)[nH]2)cc1 [N.1.14]	< 100 nM	–
Cn1cc(-c2cc3c(ncc4cnn(C)c43)[nH]2)c2ccc(C(=O)NC(C)(C)CO)cc21 [J.1.4.3]	< 100 nM	–

SMILES	IC50 [1]	IC50
NS(=O)(=O)c1ccc(-c2nc(C3CCCCC3)n3c2cnc2[nH]ccc23)cc1 [AC.3.15]	–	100 to 1000 nM
Cn1ncc2cnc3[nH]c(-c4ccc(OCCN5CCOCC5)cc4)cc3c21 [N.2.4]	< 100 nM	–
COc1ccc(-c2nnn3c2cnc2[nH]ccc23)cc1 [N.1.107]	100 to 1000 nM	–
CCCNC(=O)c1cccc(-c2[nH]c3ncc4cnn(C)c4c3c2CC)c1 [N.1.39]	1000 to 10000 nM	–
Cn1cc(-c2cc3c(ncc4cnn(C)c43)[nH]2)c2cc(C(C)(C)O)ccc21 [N.1.101]	< 100 nM	–
Cc1c(-c2ccc(C(C)(C)O)cc2)[nH]c2ncc3nncn3c12 [S.1.4]	–	100 to 1000 nM
CC(=O)c1ccc(-c2nc(C)n3c2cnc2[nH]ccc23)s1 [AC.1.32]	–	100 to 1000 nM
CS(=O)(=O)c1cccc(-c2cc3c(ncc4cnc(C5CCC(O)C5)n43)[nH]2)c1 (stereo not drawn) [M.1.6]	100 to 1000 nM	–
COc1ccc(-c2nc(C)n3c2cnc2[nH]ccc23)c(OC)c1 [AC.1.1]	–	1000 to 10000 nM
COCCCc1ncc2cnc3[nH]c(-c4cn(C)c5ccc(OC)cc45)cc3n12 [M.1.14]	< 100 nM	–
OCc1ccc(-c2ncn3c2cnc2[nH]ccc23)cc1 [AC.4.2]	–	100 to 1000 nM
CN1CCN(CCNC(=O)Cc2cccc(-c3cc4c(ncc5cnn(C)c54)[nH]3)c2)CC1 [N.1, 2-(3-(1-Methyl-1,6-dihydropyrazolo[3,4-d]pyrrolo[2,3-b]pyridin-7-yl)phenyl)-N-(2-(4-methylpiperazin-1-yl)ethyl)acetamide]	1000 to 10000 nM	–
Cn1ncc2cnc3[nH]c(-c4ccc(C(C)(C)O)cc4)cc3c21 [N.1.1]	< 100 nM	–
COc1cc2c(-c3cc4c(ncc5cnn(C)c54)[nH]3)cn(C)c2cn1 [AC.2.1]	–	< 100 nM
CCc1c(-c2ccc(C(C)(C)O)cc2)[nH]c2ncc3cnnn3c12 [S.1.8]	–	< 100 nM
Cn1ccc2cc(-c3nc(C4CCCCC4)n4c3cnc3[nH]ccc34)ccc21 [AC.3.8]	–	100 to 1000 nM
COc1ccc2c(c1)c(-c1cc3c(ncc4cnn(C)c43)[nH]1)cn2CC(O)CO (stereo not drawn) [N.1.26]	< 100 nM	–
COc1ccc(-c2nc(C)n3c2cnc2[nH]ccc23)cc1C [AC.1.37]	–	100 to 1000 nM
Cc1nnc2cnc3[nH]c(-c4cnn(C)c4)cc3n12 [M.1.12]	1000 to 10000 nM	–
Cn1nc(-c2ccc(S(C)(=O)=O)cc2)c2cnc3[nH]ccc3c21 [AR.1.1]	–	100 to 1000 nM
CCc1c(-c2cccc(S(=O)(=O)N(CC)CC)c2)[nH]c2ncc3cnn(C)c3c12 [N.1.40]	1000 to 10000 nM	–
Cc1nc(-c2ccc(C(C)(C)O)cc2Cl)c2cnc3[nH]ccc3n12 [N.1.103]	1000 to 10000 nM	–
COc1ccc2c(c1)c(-c1cc3c(ncc4cnc(C5CCOCC5)n43)[nH]1)cn2C [M.1.10]	< 100 nM	–

More lines, now with the values ahead:

IC50 [1]	IC50	SMILES
–	100 to 1000 nM	CC(=O)NCCc1ccc(-c2nc(C3CCCCC3)n3c2cnc2[nH]ccc23)cc1 [AC.3.19]
< 100 nM	–	COc1ccc2c(c1)c(-c1cc3c(ncc4cnc([C@@H]5CC[C@H](NC(C)=O)C5)n43)[nH]1)cn2C [J.2.1.9]
1000 to 10000 nM	–	Cn1ncc2cnc3[nH]c(-c4cccn4CC(=O)N4CCOCC4)cc3c21 [J.2.3.2]
100 to 1000 nM	–	COc1ccc2c(c1)c(-c1cc3c(ncc4nccn43)[nH]1)cn2C [M.1.20]
–	100 to 1000 nM	CN1CCN(Cc2ccc(-c3nc(C4CCCCC4)n4c3cnc3[nH]ccc34)cc2)CC1 [AC.3.14]
–	100 to 1000 nM	CC(C)(O)c1ccc(-c2nc(CNC(=O)CO)n3c2cnc2[nH]ccc23)cc1 [AC.5.7]
100 to 1000 nM	–	COc1ccc2c(c1)c(-c1cc3c(ncc4cnn(C)c43)[nH]1)cn2CCN(C)C [N.2.13]
< 100 nM	–	CN(C)c1nc(-c2ccc(C(C)(C)O)cc2)c2cnc3[nH]ccc3n12 [N.1.59]
100 to 1000 nM	–	Cc1nc(-c2ccc(C(C)(C)O)cc2)c2cnc3[nH]c(Br)cc3n12 [Example 11, 2-(4-(7-Bromo-1-methyl-6H-imidazo[1,5-a]pyrrolo[2,3-e]pyrazin-3-yl)phenyl)propan-2-ol]
1000 to 10000 nM	–	CN1CCN(Cc2nc(-c3ccc(C(C)(C)O)cc3)c3cnc4[nH]ccc4n23)CC1 [N.1.96]
–	100 to 1000 nM	Cc1nc(-c2ccc(CNS(=O)(=O)C3CC3)cc2)c2cnc3[nH]ccc3n12 [AC.1.38]
< 100 nM	–	COc1ccc(-c2ncn3c2cnc2[nH]ccc23)cc1 [N.1.98]
< 100 nM	–	COc1ccc2c(c1)c(-c1cc3c(ncc4cnc(CC(F)(F)F)n43)[nH]1)cn2C [M.1.1]
100 to 1000 nM	–	COCCNS(=O)(=O)c1cccc(-c2cc3c(ncc4cnn(C)c43)[nH]2)c1 [N.1.42]
–	100 to 1000 nM	CC(C)(O)c1ccc(-c2nc(CN3CCC(N)CC3)n3c2cnc2[nH]ccc23)cc1 [P.3.1.8]
100 to 1000 nM	–	Cn1ncc2cnc3[nH]c(-c4ccncc4)cc3c21 [N.2.1]
< 100 nM	–	COc1ccc(-c2nc(C)n3c2cnc2[nH]ccc23)cc1 [N.1.54]
1000 to 10000 nM	–	COc1ccc(-c2nc(C3CCN(C)CC3)n3c2cnc2[nH]ccc23)cc1 [N.1.86]
–	1000 to 10000 nM	Fc1ccc(-c2nc(C3CCCCC3)n3c2cnc2[nH]ccc23)cc1 [AC.3.2]
100 to 1000 nM	–	O=C(O)/C=C/c1nc(C2CCCCC2)n2c1cnc1[nH]ccc12 [Example 3, (E)-3-(1-Cyclohexyl-6H-imidazo[1,5-a]pyrrolo[2,3-e]pyrazin-3-yl)acrylic acid]
–	100 to 1000 nM	Cc1nc(-c2ccc3c(c2)CCO3)c2cnc3[nH]ccc3n12 [AC.1.26]
–	100 to 1000 nM	Cc1nc(-c2cnn(CC(C)(C)O)c2)c2cnc3[nH]ccc3n12 [AC.1.28]
100 to 1000 nM	–	Cn1ncc2cnc3[nH]c(-c4cccc(CNC(=O)CCN5CCOCC5)c4)cc3c21 [J.1.1.3]
